Reference: PMC7457137, “An Integrated Pharmacokinetic Study of an Acanthopanax senticosus Extract Preparation by Combination of Virtual Screening, Systems Pharmacology, and Multi-Component Pharmacokinetics in Rats” (Frontiers in Pharmacology, 2020)
Where two headings read alike, the source gives them in different places.

Columns and labels:
[1] = Multi-component PK in rats after i.v. administration of ASEP; assay type: in vivo, Sprague-Dawley rats
Description: The animal experiments were conducted in line with the Guide for the Care and Use of Laboratory Animals (published by the USA National Institutes of Health, NIH Publication no. 85-23, revised 1996), which were approved by the Animal Care and Use Committee of the College of Animal Science (College of Bee Science), Fujian Agriculture and Forestry University (Approval Number: […]2019004). […] All rats were acclimated to the facilities and environment for 7 days before the experiments. […] The gradient elution was carried out by the mobile phase water with 0.1% formic acid (A) and methanol (B). […] The column temperature and flow rate were at 35 °C and 0.5 ml/min, resepectively. 5 μl sample solution was injected for the HPLC-MS analysis. The electrospray ionization (ESI) source conditions were as follows: block heating temperature was kept at 400 °C; desolvation line temperature was set at 250 °C; dry gas (nitrogen) flow rate was kept at 15 L/min; and auxiliary gas (nitrogen) flow rate was 3 L/min. […] The plasma samples were separated by centrifugation, followed by storing at -20 °C before analysis. […] A DAS 3.0 software (Chinese Pharmacologic Society, Beijing, China) was used to calculate the noncompartmental PK parameters. All the results were presented as mean ± SD, and statistics analysis was done with a single-tailed Student's t test in the work.

insulin resistance [2] = system: insulin resistance; design: method as in Ma et al., 2015; settings: high-fat diet-fed rats; ref Ma et al., 2015; cited from earlier work
[3] = system: human umbilical vein endothelial cells; design: method as in Lin et al., 2017; Hu et al., 2018; settings: ref Lin et al., 2017, Hu et al., 2018; cited from earlier work
zebrafish model = system: zebrafish model; design: method as in Lin et al., 2017; Hu et al., 2018; settings: ref Lin et al., 2017, Hu et al., 2018; cited from earlier work
[4] = Stability of the compounds in rat plasma (LC-MS validation); assay type: in vitro ADME
Source text: According to the “Guidelines for non-clinical pharmacokinetics of drugs” issued by Centre for Drug Evaluation, National Medical Products Administration, China ([Guidelines for non-clinical pharmacokinetics of drugs, 2014]), the LC-MS method was validated by linearity, limits of detection (LOD), limits of quantification (LOQ), precision, accuracy, extraction recovery, matrix effect and stability of the 6 compounds in rat plasma. In brief, blank rat plasma was obtained from the other six rats. The standard mixture solution containing the 6 compounds (with the concentration of 1 mg/ml for each) was diluted with […] to prepare a series of working solution containing the 6 compounds (concentration level: 20, 50, 100, 250, 500 ng/ml and 1, 2.5, 5, 10, 25, 50, 100, 125 150, 200 μg/ml) and IS (2.5μg/ml). For calibration curve, 10 μl of the series of working solution containing the IS (2.5μg/ml) was added into 100 μl of blank plasma. Finally, 15 data points (2, 5, 10, 25, 50, 100, 250, 500 ng/ml and 1, 2.5, 5, 10, 12.5 15, 20 μg/ml) were used in the calibration curve linearity. Calibration curves were plotted by weighted linear regression of the peak area ratio of analyte to the IS against the related nominal concentration of the analyte. LOD and LOQ were defined as the detectable concentration at which the ratio of signal to noise was about 3 and 10, respectively ([Huang et al., 2019]). […] The extraction recovery and matrix effect were also assessed at the above-mentioned three concentration levels for the 6 ingredients in the spiked plasma samples ([Huang et al., 2019]). Stability was examined under the condition of setting un-treated plasma samples at ambient temperature for 6 h, and extracted plasma samples in auto-sampler for 10 h, as well as setting plasma samples for three freeze-thaw cycles and at −80°C for 15 days ([Guidelines for non-clinical pharmacokinetics of drugs, 2014]).

insulin resistance [5] = system: insulin resistance; design: method as in Kim et al., 2017; settings: high-fat diet-fed mice; ref Kim et al., 2017; cited from earlier work
[6] = after ASEP; ref Fan et al., 2015; cited from earlier work
AKT = system: AKT; design: method as in Yang et al., 2018; settings: down-regulates transcriptional activity of FoxO1; ref Yang et al., 2018; cited from earlier work
[7] = extracted plasma samples, 10h in auto-sampler vials, high spiked level (HQC, 8000-16000 ng/mL)
[8] = extracted plasma samples, 10h in auto-sampler vials, low spiked level (LQC, 5-30 ng/mL)
[9] = extracted plasma samples, 10h in auto-sampler vials, middle spiked level (MQC, 400-1600 ng/mL)
[10] = rat plasma, 6h at room temperature, high spiked level (HQC, 8000-16000 ng/mL)
[11] = rat plasma, 6h at room temperature, low spiked level (LQC, 5-30 ng/mL)
[12] = rat plasma, 6h at room temperature, middle spiked level (MQC, 400-1600 ng/mL)
[13] = rat plasma, freeze-thaw stability (three cycles), high spiked level (HQC, 8000-16000 ng/mL)
[14] = rat plasma, freeze-thaw stability (three cycles), low spiked level (LQC, 5-30 ng/mL)
[15] = rat plasma, freeze-thaw stability (three cycles), middle spiked level (MQC, 400-1600 ng/mL)
[16] = rat plasma, long-term stability (-80℃,15 days), high spiked level (HQC, 8000-16000 ng/mL)
[17] = rat plasma, long-term stability (-80℃,15 days), low spiked level (LQC, 5-30 ng/mL)
[18] = rat plasma, long-term stability (-80℃,15 days), middle spiked level (MQC, 400-1600 ng/mL)
[19] = male, Sprague-Dawley, rat, in vivo, iv

O=C(/C=C/c1ccc(O)c(O)c1)O[C@@H]1C[C@](O)(C(=O)O)C[C@@H](O)[C@H]1O [3-CQA, 3-caffeoylquinic acid]
AUC(0-t) ([1]; male, Sprague-Dawley, rat, plasma, iv, 1.76 ml/kg, rat plasma, Low group: single i.v. 1.76 ml/kg of 5 times concentrated ASEP, mean ± SD, n=3, read-out: AUC0-t): 1830 ng·h/mL
AUC(0-inf) ([1]; male, Sprague-Dawley, rat, plasma, iv, 1.76 ml/kg, rat plasma, Low group: single i.v. 1.76 ml/kg of 5 times concentrated ASEP, mean ± SD, n=3, read-out: AUC0-∞): 1830 ng·h/mL
clearance ([1]; male, Sprague-Dawley, rat, plasma, iv, 1.76 ml/kg, rat plasma, Low group: single i.v. 1.76 ml/kg of 5 times concentrated ASEP, mean ± SD, n=3, read-out: Cl (converted)): 8.5 mL/min
MRT last ([1]; male, Sprague-Dawley, rat, plasma, iv, 1.76 ml/kg, rat plasma, Low group: single i.v. 1.76 ml/kg of 5 times concentrated ASEP, mean ± SD, n=3, read-out: MRT0-t): 25.8 ± 1.2 min
MRT inf ([1]; male, Sprague-Dawley, rat, plasma, iv, 1.76 ml/kg, rat plasma, Low group: single i.v. 1.76 ml/kg of 5 times concentrated ASEP, mean ± SD, n=3, read-out: MRT0-∞): 25.8 ± 1.2 min
Vd ([1]; male, Sprague-Dawley, rat, plasma, iv, 1.76 ml/kg, rat plasma, Low group: single i.v. 1.76 ml/kg of 5 times concentrated ASEP, mean ± SD, n=3, read-out: Vd): 0.26 ± 0.01 L
half-life ([1]; male, Sprague-Dawley, rat, plasma, iv, 1.76 ml/kg, rat plasma, Low group: single i.v. 1.76 ml/kg of 5 times concentrated ASEP, mean ± SD, n=3, read-out: t 1/2 (converted)): 21.6 ± 0.6 min
AUC(0-t) ([1]; male, Sprague-Dawley, rat, plasma, iv, 3.52 ml/kg, rat plasma, High group: single i.v. 3.52 ml/kg of 5 times concentrated ASEP, mean ± SD, n=3, read-out: AUC0-t): 3410 ng·h/mL
AUC(0-inf) ([1]; male, Sprague-Dawley, rat, plasma, iv, 3.52 ml/kg, rat plasma, High group: single i.v. 3.52 ml/kg of 5 times concentrated ASEP, mean ± SD, n=3, read-out: AUC0-∞): 3420 ng·h/mL
clearance ([1]; male, Sprague-Dawley, rat, plasma, iv, 3.52 ml/kg, rat plasma, High group: single i.v. 3.52 ml/kg of 5 times concentrated ASEP, mean ± SD, n=3, read-out: Cl (converted)): 9 mL/min
MRT last ([1]; male, Sprague-Dawley, rat, plasma, iv, 3.52 ml/kg, rat plasma, High group: single i.v. 3.52 ml/kg of 5 times concentrated ASEP, mean ± SD, n=3, read-out: MRT0-t): 25.2 min
MRT inf ([1]; male, Sprague-Dawley, rat, plasma, iv, 3.52 ml/kg, rat plasma, High group: single i.v. 3.52 ml/kg of 5 times concentrated ASEP, mean ± SD, n=3, read-out: MRT0-∞): 25.8 min
Vd ([1]; male, Sprague-Dawley, rat, plasma, iv, 3.52 ml/kg, rat plasma, High group: single i.v. 3.52 ml/kg of 5 times concentrated ASEP, mean ± SD, n=3, read-out: Vd): 0.64 L
half-life ([1]; male, Sprague-Dawley, rat, plasma, iv, 3.52 ml/kg, rat plasma, High group: single i.v. 3.52 ml/kg of 5 times concentrated ASEP, mean ± SD, n=3, read-out: t 1/2 (converted)): 48.6 min
effect on insulin resistance (insulin resistance [2]): improve insulin resistance
effect on VEGF-induced angiogenesis [3]: significant inhibitory effects
effect on VEGF-induced angiogenesis (zebrafish model): significant inhibitory effects

COc1cc(/C=C/CO)cc(OC)c1O[C@@H]1O[C@H](CO)[C@@H](O)[C@H](O)[C@H]1O [EB, eleutheroside B]
ingredient concentration in rat plasma ([1]; PK time points 2.5, 5, 10, 15 and 20 min after single i.v. 3.52 ml/kg of 5 times concentrated ASEP, preliminary examination): > 0.5 ng/mL
AUC(0-t) ([1]; male, Sprague-Dawley, rat, in vivo, iv, 1.76 ml/kg, read-out: AUC0-t): 3040 ng·h/mL
AUC(0-inf) ([1]; male, Sprague-Dawley, rat, in vivo, iv, 1.76 ml/kg, read-out: AUC0-∞): 3060 ng·h/mL
clearance ([1]; male, Sprague-Dawley, rat, in vivo, iv, 1.76 ml/kg, read-out: Cl (converted)): 9.17 mL/min
MRT last ([1]; male, Sprague-Dawley, rat, in vivo, iv, 1.76 ml/kg, read-out: MRT0-t): 26.4 min
MRT inf ([1]; male, Sprague-Dawley, rat, in vivo, iv, 1.76 ml/kg, read-out: MRT0-∞): 31.2 ± 0.6 min
Vd ([1]; male, Sprague-Dawley, rat, in vivo, iv, 1.76 ml/kg, read-out: Vd): 3.45 ± 0.1 L
half-life ([1]; male, Sprague-Dawley, rat, in vivo, iv, 1.76 ml/kg, read-out: t 1/2 (converted)): 261 ± 6 min
AUC(0-t) ([1]; male, Sprague-Dawley, rat, in vivo, iv, 3.52 ml/kg, read-out: AUC0-t): 4530 ng·h/mL
AUC(0-inf) ([1]; male, Sprague-Dawley, rat, in vivo, iv, 3.52 ml/kg, read-out: AUC0-∞): 4540 ng·h/mL
clearance ([1]; male, Sprague-Dawley, rat, in vivo, iv, 3.52 ml/kg, read-out: Cl (converted)): 12.3 mL/min
MRT last ([1]; male, Sprague-Dawley, rat, in vivo, iv, 3.52 ml/kg, read-out: MRT0-t): 26.4 ± 0.6 min
MRT inf ([1]; male, Sprague-Dawley, rat, in vivo, iv, 3.52 ml/kg, read-out: MRT0-∞): 30 ± 1.2 min
Vd ([1]; male, Sprague-Dawley, rat, in vivo, iv, 3.52 ml/kg, read-out: Vd): 3.38 ± 1.15 L
half-life ([1]; male, Sprague-Dawley, rat, in vivo, iv, 3.52 ml/kg, read-out: t 1/2 (converted)): 190 ± 65.4 min
half-life ([1]; male, Sprague-Dawley, rat, in vivo, iv, read-out: t 1/2 (elimination in rat blood)): ≥ 190 min
Stability, RE [4, 7]: 1.92%
Stability, RE [4, 8]: 12.12%
Stability, RE [4, 9]: -0.97%
Stability, RE [4, 10]: -4.48%
Stability, RE [4, 11]: -5.59%
Stability, RE [4, 12]: -14.91%
Stability, RE [4, 13]: -4.14%
Stability, RE [4, 14]: 4.10%
Stability, RE [4, 15]: -0.75%
Stability, RE [4, 16]: 6.11%
Stability, RE [4, 17]: -8.20%
Stability, RE [4, 18]: -4.54%
effect on insulin resistance (insulin resistance [5]): improve insulin resistance
PK profile in cerebral ischemia-reperfusion rats compared with the normal group [6]: accumulated

C=C[C@@H]1C2=CCOC(=O)C2=CO[C@H]1O[C@@H]1O[C@H](CO)[C@@H](O)[C@H](O)[C@H]1O [GPS, gentiopicroside]
AUC0-∞ [1, 19]: 118.37 ± 6.75 ng·h/mL
AUC(0-t) [1, 19]: 108.95 ± 5.92 ng·h/mL
Cl [1, 19]: 3.83 ± 0.23 L/h
MRT0-t [1, 19]: 15.6 ± 0.6 min
MRT0-∞ [1, 19]: 21 ± 2.4 min
Vd [1, 19]: 1.45 ± 0.16 L
t 1/2 [1, 19]: 15.6 ± 2.4 min
AUC(0-t) ([1]; male, Sprague-Dawley, rat, in vivo, iv, AUC0-t): 63.6 ± 2.53 ng·h/mL
AUC(0-inf) ([1]; male, Sprague-Dawley, rat, in vivo, iv, AUC0-∞): 68.2 ± 1.88 ng·h/mL
clearance ([1]; male, Sprague-Dawley, rat, in vivo, iv, Cl): 55.3 mL/min
MRT last ([1]; male, Sprague-Dawley, rat, in vivo, iv, MRT0-t): 21.6 ± 0.6 min
MRT inf ([1]; male, Sprague-Dawley, rat, in vivo, iv, MRT0-∞): 25.2 ± 3 min
Vd ([1]; male, Sprague-Dawley, rat, in vivo, iv, Vd): 1.08 ± 0.26 L
half-life ([1]; male, Sprague-Dawley, rat, in vivo, iv, t 1/2): 13.8 ± 3.6 min
Stability, RE [4, 7]: -9.29%
Stability, RE [4, 8]: 10.09%
Stability, RE [4, 9]: 2.52%
Stability, RE [4, 10]: -13.56%
Stability, RE [4, 11]: -10.12%
Stability, RE [4, 12]: -6.72%
Stability, RE [4, 13]: -2.10%
Stability, RE [4, 14]: 14.78%
Stability, RE [4, 15]: 1.22%
Stability, RE [4, 16]: 9.68%
Stability, RE [4, 17]: 12.72%
Stability, RE [4, 18]: 4.29%
effect on phosphorylation of AKT (AKT): activate the phosphorylation of AKT
